Source: US20250255867A1 (Kadmon Corporation, LLC, priority 2022, published 2025)
Several values for one entry are separate records, joined by “and”; a condition that tells them apart may be missing. Identical values can stand only once.

What was measured:
Assay type in all cases: in vivo, human
[1] = test system: subjects with BOS; experiment: Example 3: Lee Symptom Scale lung score in BOS
From the text: Following the methodology used for the LSS, we identified a 10-point difference (half a standard deviation from baseline scores) as being a clinically meaningful organ-specific change in this dataset. (Lee S et al. Development and validation of a scale to measure symptoms of chronic graft-versus-host disease. Biol Blood Marrow Transplant 2002; 8 (8): 444-452; Teh C et al. Reliability and Validity of the Modified 7-Day Lee Chronic Graft-versus-Host Disease Symptom Scale. Biol Blood Marrow Transplant 2020; 26 (3): 562-567.) Forty subjects (68%) experienced a clinically meaningful improvement (10-point reduction) in the LSS lung score.

[2] = test system: patients with cGVHD; experiment: Example 1: Global Severity Rating and participant self-reported symptom activity
Procedure: Maximal Improvement from Baseline in Global Severity Rating (GSR) by Clinician-reported cGVHD Assessment. The GSR assessment was performed by asking the participants to rate their disease severity of cGVHD symptoms on a 0 to 10-point numeric rating scale, where score 0 indicated ‘not at all severe cGVHD symptoms’ and score 10 indicated ‘most severe cGVHD symptoms possible’. The response was defined using the scores from 9 organs: skin, eyes, mouth, esophagus, upper gastrointestinal (GI) track, lower GI tract, liver, lungs, and joints and fascia plus GSR. End of treatment (EOT) visit was performed within 3 days after the participant's last dose of study drug. Baseline value was defined as valid and last non-missing value obtained within 28 days prior to participant receiving first study medication. […] Analysis was performed on mITT population.
Number of Participants With Maximal Improvement From Baseline in Symptom Activity by cGVHD Activity Assessment Participant Self-Report. cGVHD symptom severity was self-reported by participants. Participants were asked to rate their disease symptom severity over the last week on the following questions: skin itching at its worst, moth dryness at its worst, mouth pain at its worst, mouth sensitivity at its worst, main compliant on eyes, symptom severity on eyes. The severity rating was done on a 0 to 10-point numeric rating scare, where score 0 indicated ‘not at all severe cGVHD symptoms’ and score 10 indicated ‘most severe cGVHD symptoms possible’. EOT visit was performed within 3 days after the participant's last dose of study drug. Baseline value was defined as valid and last non-missing value obtained within 28 days prior to participant receiving first study medication. […] Analysis was performed on mITT population.

[3] = test system: patients with cGVHD; experiment: Example 1: Lee cGVHD Symptom Scale (LSS)
Procedure: All responses were assessed by the investigators.
QOL assessment. […] Thirty-five percent of all patients (37% of responders and 32% of nonresponders) reported a clinically meaningful improvement in LSS score on consecutive assessments.
Change From Baseline in Overall Score on Lee cGvHD Symptom Scale at Specified Time Points. Lee cGVHD symptom scale, a patient-reported symptom scale used to measure symptom burden and has 7 subscales (Skin, Eyes and Mouth, Breathing, Eating and Digestion, Muscles and Joints, Energy, and Mental and Emotional) with ratings as follows: 0—Not at all, 1—Slightly, 2—Moderately, 3—Quite a bit, 4—Extremely, with lower values representing better outcome. Score for each subscale was normalized to a score ranged from 0 to 100, where higher score-worse symptoms. An overall score was calculated as average of these 7 subscales. EOT visit was performed within 3 days after the participant's last dose of study drug. Baseline value was defined as valid and last non-missing value obtained within 28 days prior to participant receiving first study medication. […] Analysis was performed on mITT population. Here, ‘number analyzed’=participants with available data for each specified category. Here, ‘0’ in the number analyzed field signifies that none of the participants were available for the analysis at the specified time points.

CC(C)NC(=O)COc1cccc(-c2nc(Nc3ccc4[nH]ncc4c3)c3ccccc3n2)c1 [Belumosudil, 2-{3-[4-(1H-indazol-5-ylamino)-2-quinazolinyl]phenoxy}-N-(propan-2-yl) acetamide]
Subjects with clinically meaningful improvement (10-point reduction) in LSS lung score ([1]; 59 subjects): 68% | Clinically meaningful improvement in LSS lung score ([1]; baseline NIH lung score 1): 66% | Clinically meaningful improvement in LSS lung score ([1]; baseline NIH lung score 2): 61% | Clinically meaningful improvement in LSS lung score ([1]; baseline NIH lung score 3): 100% | Clinically meaningful improvement in LSS lung score ([1]; non-responders): 68% and 67.5% | Clinically meaningful improvement in LSS lung score ([1]; subjects with 35% best improvement in % FEV1): 61% | Clinically meaningful improvement in LSS lung score ([1]; subjects with <5% best improvement in % FEV1): 69% | Maximal improvement from baseline in GSR of 0 ([2]; Cohort 1 200 mg QD): 5 (29%) participants | Maximal improvement from baseline in GSR of 1 ([2]; Cohort 1 200 mg QD): 0 (0%) participants | Maximal improvement from baseline in GSR of 3 ([2]; Cohort 1 200 mg QD): 0 (0%) participants | Maximal improvement from baseline in GSR of −1 ([2]; Cohort 1 200 mg QD): 1 (6%) participants | Maximal improvement from baseline in GSR of −2 ([2]; Cohort 1 200 mg QD): 2 (12%) participants | Maximal improvement from baseline in GSR of −4 ([2]; Cohort 1 200 mg QD): 2 (12%) participants | Maximal improvement from baseline in GSR of −5 ([2]; Cohort 1 200 mg QD): 2 (12%) participants | Maximal improvement from baseline in GSR of −6 ([2]; Cohort 1 200 mg QD): 0 (0%) participants | Maximal improvement from baseline in GSR of −7 ([2]; Cohort 1 200 mg QD): 0 (0%) participants | Maximal improvement in self-reported symptom activity of 0 ([2]; Cohort 1 200 mg QD): 1 participants | Maximal improvement in self-reported symptom activity of 1 ([2]; Cohort 1 200 mg QD): 0 participants | Maximal improvement in self-reported symptom activity of 2 ([2]; Cohort 1 200 mg QD): 0 participants | Maximal improvement in self-reported symptom activity of 4 ([2]; Cohort 1 200 mg QD): 1 participants | Maximal improvement in self-reported symptom activity of −1 ([2]; Cohort 1 200 mg QD): 2 participants | Maximal improvement in self-reported symptom activity of −2 ([2]; Cohort 1 200 mg QD): 2 participants | Maximal improvement in self-reported symptom activity of −3 ([2]; Cohort 1 200 mg QD): 2 participants | Maximal improvement in self-reported symptom activity of −4 ([2]; Cohort 1 200 mg QD): 2 participants | Maximal improvement in self-reported symptom activity of −5 ([2]; Cohort 1 200 mg QD): 2 participants | Maximal improvement in self-reported symptom activity of −6 ([2]; Cohort 1 200 mg QD): 0 participants | Maximal improvement in self-reported symptom activity of −7 ([2]; Cohort 1 200 mg QD): 3 participants | Maximal improvement in self-reported symptom activity of −8 ([2]; Cohort 1 200 mg QD): 0 participants | Maximal improvement from baseline in GSR of 0 ([2]; Cohort 2 200 mg BID): 4 (25%) participants | Maximal improvement from baseline in GSR of 1 ([2]; Cohort 2 200 mg BID): 1 (6%) participants | Maximal improvement from baseline in GSR of 3 ([2]; Cohort 2 200 mg BID): 1 (6%) participants | Maximal improvement from baseline in GSR of −1 ([2]; Cohort 2 200 mg BID): 2 (13%) participants | Maximal improvement from baseline in GSR of −2 ([2]; Cohort 2 200 mg BID): 4 (25%) participants | Maximal improvement from baseline in GSR of −3 ([2]; Cohort 2 200 mg BID): 0 (0%) participants | Maximal improvement from baseline in GSR of −4 ([2]; Cohort 2 200 mg BID): 0 (0%) participants | Maximal improvement from baseline in GSR of −5 ([2]; Cohort 2 200 mg BID): 2 (13%) participants | Maximal improvement from baseline in GSR of −6 ([2]; Cohort 2 200 mg BID): 2 (13%) participants | Maximal improvement from baseline in GSR of −7 ([2]; Cohort 2 200 mg BID): 0 (0%) participants | Maximal improvement in self-reported symptom activity of 0 ([2]; Cohort 2 200 mg BID): 1 participants | Maximal improvement in self-reported symptom activity of 1 ([2]; Cohort 2 200 mg BID): 0 participants | Maximal improvement in self-reported symptom activity of 2 ([2]; Cohort 2 200 mg BID): 1 participants | Maximal improvement in self-reported symptom activity of 4 ([2]; Cohort 2 200 mg BID): 0 participants | Maximal improvement in self-reported symptom activity of −1 ([2]; Cohort 2 200 mg BID): 2 participants | Maximal improvement in self-reported symptom activity of −2 ([2]; Cohort 2 200 mg BID): 3 participants | Maximal improvement in self-reported symptom activity of −3 ([2]; Cohort 2 200 mg BID): 2 participants | Maximal improvement in self-reported symptom activity of −4 ([2]; Cohort 2 200 mg BID): 2 participants | Maximal improvement in self-reported symptom activity of −5 ([2]; Cohort 2 200 mg BID): 0 participants | Maximal improvement in self-reported symptom activity of −6 ([2]; Cohort 2 200 mg BID): 1 participants | Maximal improvement in self-reported symptom activity of −7 ([2]; Cohort 2 200 mg BID): 2 participants | Maximal improvement in self-reported symptom activity of −8 ([2]; Cohort 2 200 mg BID): 0 participants | Maximal improvement from baseline in GSR of 0 ([2]; Cohort 3 400 mg QD): 3 (14%) participants | Maximal improvement from baseline in GSR of 1 ([2]; Cohort 3 400 mg QD): 1 (5%) participants | Maximal improvement from baseline in GSR of 3 ([2]; Cohort 3 400 mg QD): 0 (0%) participants | Maximal improvement from baseline in GSR of −1 ([2]; Cohort 3 400 mg QD): 4 (19%) participants | Maximal improvement from baseline in GSR of −2 ([2]; Cohort 3 400 mg QD): 4 (19%) participants | Maximal improvement from baseline in GSR of −3 ([2]; Cohort 3 400 mg QD): 1 (5%) participants | Maximal improvement from baseline in GSR of −4 ([2]; Cohort 3 400 mg QD): 3 (14%) participants | Maximal improvement from baseline in GSR of −5 ([2]; Cohort 3 400 mg QD): 0 (0%) participants | Maximal improvement from baseline in GSR of −6 ([2]; Cohort 3 400 mg QD): 0 (0%) participants | Maximal improvement from baseline in GSR of −7 ([2]; Cohort 3 400 mg QD): 2 (10%) participants | Maximal improvement in self-reported symptom activity of 0 ([2]; Cohort 3 400 mg QD): 0 participants | Maximal improvement in self-reported symptom activity of 1 ([2]; Cohort 3 400 mg QD): 1 participants | Maximal improvement in self-reported symptom activity of 2 ([2]; Cohort 3 400 mg QD): 2 participants | Maximal improvement in self-reported symptom activity of 4 ([2]; Cohort 3 400 mg QD): 0 participants | Maximal improvement in self-reported symptom activity of −1 ([2]; Cohort 3 400 mg QD): 2 participants | Maximal improvement in self-reported symptom activity of −2 ([2]; Cohort 3 400 mg QD): 2 participants | Maximal improvement in self-reported symptom activity of −3 ([2]; Cohort 3 400 mg QD): 2 participants | Maximal improvement in self-reported symptom activity of −4 ([2]; Cohort 3 400 mg QD): 1 participants | Maximal improvement in self-reported symptom activity of −5 ([2]; Cohort 3 400 mg QD): 2 participants | Maximal improvement in self-reported symptom activity of −6 ([2]; Cohort 3 400 mg QD): 4 participants | Maximal improvement in self-reported symptom activity of −7 ([2]; Cohort 3 400 mg QD): 0 participants | Maximal improvement in self-reported symptom activity of −8 ([2]; Cohort 3 400 mg QD): 1 participants | Clinically significant improvement (LSS), nonresponder ([3]; Cohort 1 200 mg QD): 1/6 (17, 0.4 to % | Clinically significant improvement (LSS), responder ([3]; Cohort 1 200 mg QD): 8/11 (73, 39 to % | Clinically significant improvement (LSS), overall ([3]; Cohort 1 200 mg QD, decrease ≥7 points): 9 (53, 28 to 77) % | Clinically significant improvement (LSS), nonresponder ([3]; Cohort 2 200 mg BID): 4/5 (80, 28 to % | Clinically significant improvement (LSS), overall ([3]; Cohort 2 200 mg BID): 7 (44, 20 to 70) % | Clinically significant improvement (LSS), responder ([3]; Cohort 2 200 mg BID): 3/11 (27, 6 to % | Clinically significant improvement (LSS), nonresponder ([3]; Cohort 3 400 mg QD): 2/8 (25, 3 to % | Clinically significant improvement (LSS), overall ([3]; Cohort 3 400 mg QD): 11 (52, 30 to % | Clinically significant improvement (LSS), responder ([3]; Cohort 3 400 mg QD): 9/13 (69, 39 to % | Clinically significant improvement (LSS), nonresponder ([3]; Total): 7/19 (37, 16 to % | Clinically significant improvement (LSS), responder ([3]; Total): 20/35 (57, 39 to % | Clinically significant improvement (LSS), overall ([3]; Total N=54, listed as KD025): 27 (50, 36 to % | Clinically significant improvement (LSS), overall ([3]; Total N=54, listed as belumosudil): 50%
